# Data reported in PubChem BioAssay (NCI).
#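 Five concentrations, 48 hours, 96-well plates. GI50 = concentration required for 50% inhibition of growth. TGI: total growth inhibition.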
# How the values were obtained:
# Assay in all cases: NCI anticancer screen, dose series, 48 h
# [1] = system: A498 renal
# [2] = system: CAKI-1 renal
# [3] = system: HS 578T breast
# [4] = system: K-562 leukemia
# [5] = system: MALME-3M melanoma
# [6] = system: PC-3 prostate
# [7] = system: SNB-75 CNS
# [8] = system: SR leukemia
# [9] = system: U251 CNS
# [10] = system: UACC-257 melanoma
SMILES,TGI [1],TGI [2],TGI [3],TGI [4],TGI [5],TGI [6],TGI [7],TGI [8],TGI [9],TGI [10],GI50 [1],GI50 [2],GI50 [3],GI50 [4],GI50 [5],GI50 [6],GI50 [7],GI50 [8],GI50 [9],GI50 [10]
Cc1cc2c(Br)cc(Br)c(O)c2nc1C(=O)c1ccccc1,> 100 µM,> 100 µM,> 100 µM,52.1 µM,> 76.9 µM,> 100 µM,> 100 µM,> 100 µM,> 71.3 µM,> 65.7 µM,–,–,–,–,–,–,–,–,–,–
COc1ccccc1/C=C/C(=O)/C=C/c1ccccc1O,3.32 µM,5.53 µM,11.7 µM,–,5.98 µM,2.75 µM,2.57 µM,> 100 µM,1.28 µM,3.63 µM,1.8 µM,1.79 µM,2.25 µM,0.441 µM,1.82 µM,0.539 µM,0.964 µM,0.39 µM,0.326 µM,1.71 µM
CCCCCCCCCCCC[n+]1ccccc1 (tested in a mixture with another compound),7.25 µM,9.03 µM,5.15 µM,11 µM,2.77 µM,0.937 µM,3.84 µM,3.11 µM,2.2 µM,2.88 µM,1.84 µM,1.01 µM,1.71 µM,0.392 µM,0.633 µM,0.208 µM,1.08 µM,0.156 µM,0.443 µM,0.772 µM
O=C(/C=C/c1ccccc1)CC(c1ccccc1)N1CCOCC1 (configuration not stated),26.2 µM,12.9 µM,55 µM,21.8 µM,19.9 µM,19.1 µM,27.7 µM,8.92 µM,5.21 µM,18.8 µM,12.9 µM,3.38 µM,4.25 µM,3.4 µM,4.4 µM,4.54 µM,12.5 µM,2.71 µM,2.44 µM,5.63 µM
Cc1ncc(C(=O)Nc2ccc(CN3CCN(C)CC3)c(C(F)(F)F)c2)cc1C#Cc1cnc(NC2CC2)c2ncccc12,5.56 µM,3.47 µM,4.44 µM,0.476 µM,1.15 µM,1.17 µM,5.75 µM,1.27 µM,1.11 µM,1.59 µM,1.78 µM,1.66 µM,1.19 µM,0.0211 µM,0.57 µM,0.597 µM,1.81 µM,0.493 µM,0.581 µM,0.719 µM
NC(=O)C1(N2CCCCC2)CCN(CCCC(=O)c2ccc(F)cc2)CC1,11.4 µM,> 100 µM,> 100 µM,> 100 µM,> 100 µM,> 100 µM,> 100 µM,–,> 100 µM,> 100 µM,2.72 µM,26.6 µM,2.37 µM,0.28 µM,0.264 µM,2.33 µM,0.147 µM,0.0761 µM,0.263 µM,–
COc1ccc(CC(C)C(C)Cc2ccc(OC)c(OC)c2)cc1OC (configuration not stated),> 1400 µM,> 1400 µM,> 1400 µM,> 1400 µM,> 1400 µM,> 1400 µM,> 1400 µM,> 1400 µM,> 1400 µM,> 1400 µM,> 1400 µM,> 1400 µM,> 1400 µM,> 1400 µM,> 1400 µM,> 1400 µM,> 1400 µM,915 µM,802 µM,80.7 µM
O=C1C(SCCO)=C(SCCO)C(=O)c2ccccc21,1.35 µM,4.24 µM,4.99 µM,3.87 µM,2.85 µM,6.1 µM,2.57 µM,3.74 µM,2.01 µM,2.59 µM,–,–,–,–,–,–,–,–,–,–
CNC(=O)c1cc2c(Oc3ccc(NC(=O)C4(C(=O)Nc5ccc(F)cc5)CC4)cc3)ccnc2cc1OC,3.27 µM,3.33 µM,4.69 µM,3.4 µM,9.45 µM,> 100 µM,2.74 µM,5.99 µM,> 100 µM,> 100 µM,1.28 µM,1.52 µM,1.11 µM,0.37 µM,1.66 µM,3.09 µM,0.0837 µM,2.05 µM,3.51 µM,3.12 µM
CC1(C)N=C(N)N=C(N)N1c1ccc(OCC(=O)Nc2ccccc2)c(Cl)c1,> 100 µM,> 100 µM,> 100 µM,> 100 µM,> 100 µM,> 66.5 µM,> 100 µM,> 51.6 µM,> 100 µM,> 100 µM,> 58.1 µM,> 85.9 µM,> 100 µM,0.446 µM,> 71.4 µM,0.123 µM,> 100 µM,0.515 µM,0.674 µM,> 25.4 µM
CCN(CC)CCNC(=O)c1cn2ncnc(Oc3ccc(NC(=O)Nc4ccc(Cl)c(C(F)(F)F)c4)c(F)c3)c2c1C,3.28 µM,3.13 µM,4.29 µM,2.28 µM,2.55 µM,3.3 µM,1.97 µM,1.09 µM,3.07 µM,3.18 µM,1.84 µM,1.69 µM,1.52 µM,0.442 µM,1.15 µM,1.53 µM,0.412 µM,0.343 µM,1.59 µM,1.61 µM
